This is an account of results in patent EP0459830A1, “Pharmacologically active CNS compounds” (THE WELLCOME FOUNDATION LIMITED, priority 1990, dated 1991).

For one assay, the target named is T1, Rat Liver DHFR (Rattus norvegicus, UniProt Q920D2).
T1 construct: from tissue; host or cells: rat liver
T1 sequence (Q920D2 1-187): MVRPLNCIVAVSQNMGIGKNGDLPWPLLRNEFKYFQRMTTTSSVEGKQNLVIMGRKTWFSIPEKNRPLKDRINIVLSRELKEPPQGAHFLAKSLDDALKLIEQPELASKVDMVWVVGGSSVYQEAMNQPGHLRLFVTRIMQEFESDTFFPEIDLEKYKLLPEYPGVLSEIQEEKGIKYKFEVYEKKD
The assay is described as follows: inhibition of DHFR activity. The format is biochemical. The note with it: rat liver DHFR enzyme activity; read-out: IC50(μM) Rat Liver DHFR (P95 limits). How it is done: (§1) Compounds of formula (Ia) were tested for their effect on veratrine-evoked release of glutamate from rat brain slices according to the protocol described in Epilepsia 27(5): 490-497, 1986. The protocol for testing for inhibition of DHFR activity was a modification of that set out in Biochemical Pharmacology Vol.20 pp 561-574, 1971.
(§2) The results are given in Table 1, the IC₅₀ being the concentration of compound to […] 50% of DHFR enzyme activity.

Assay [1] concerns veratrine-evoked release of glutamate from rat brain slices. Kind of assay: veratrine-evoked release of glutamate from rat brain slices. The class given is cell-based. The note with it: read-out: IC50(μM) Glutamate Release (P95 limits). How it is done: as §1, §2
For assay [2], the system named is release of the excitatory amino acids, glutamate and aspartate. Particulars: Leach et al Epilepsia 27, 490-497 1986; Miller et al 1987; cited from earlier work.

Usually IC50 stands for the point on the concentration scale where inhibition reaches its midpoint. In the case of `Nc1cc(-c2cccc3ccccc23)nc(N)n1` [Example 4, 2,4-Diamino-6-(1-naphthyl)pyrimidine], the 50% inhibitory concentration (IC50) on Rat Liver DHFR was 100 µM; in assay [1], over 10 µM.

As for `Nc1cc(-c2ccc(Cl)cc2Cl)nc(N)n1` [Example 3, 2,4-Diamino-6-(2,4-Dichlorophenyl)pyrimidine], the figures for the half-maximal inhibitory concentration (IC50) (at Rat Liver DHFR; in assay [1]) were under 100 µM and over 10 µM, respectively.

For the molecule `Cc1c(N)nc(N)nc1-c1ccc(Cl)cc1` [*, 2,4-Diamino-5-methyl-6-(4-chlorophenyl)pyrimidine], the IC50 at Rat Liver DHFR is over 55 µM; in assay [1], over 10 µM.

As to `Nc1cc(-c2cccc(Cl)c2Cl)nc(N)n1` [Example 1, 2,4-Diamino-6-(2,3-dichlorophenyl)pyrimidine], the IC50 on Rat Liver DHFR is under 100 µM; in assay [1] it was 10 µM.

As for `Nc1cc(-c2ccccc2Cl)nc(N)n1` [Example 2, 2,4-Diamino-6-(2-chlorophenyl)pyrimidine], the IC50 at Rat Liver DHFR is over 100 µM; in assay [1], 10 µM.

Turning to `Nc1nnc(-c2cccc(Cl)c2Cl)c(N)n1` [lamotrigine, 3,5-diamino-6-(2,3-dichlorophenyl)-1,2,4-triazine], the “inhibition of release of glutamate and aspartate” value in assay [2] was “inhibit the release of the excitatory amino acids, glutamate and aspartate”.
